Measurements published in PubChem BioAssay AID2060614 (Molecular Pharmacology Branch, DTP, NCI, 2025).

System: 598228-144-R-J1-PDC complex spheroids, viability
Test: Anticancer human tumor 598228-144-R-J1-PDC patient-derived serous endometrial adenocarcinoma cell line growth inhibition [CLK]
Conditions: for IC50: curve of first compound; for viability, T/C: stronger effect = lower value
Outline: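 Patient-derived tumor cells grown as complex spheroids with HUVEC endothelial cells and mesenchymal stem cells, treated with drug combinations. Concentrations descend in half-log steps from near clinical Cmax, or from 10 microM if Cmax unknown.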

[1] = second compound 0.0316 µM, first compound 0.0316 µM
[2] = second compound 0.0316 µM, first compound 0.1 µM
[3] = second compound 0.0316 µM, first compound 0.316 µM
[4] = second compound 0.0316 µM, first compound 1 µM
[5] = second compound 0.0316 µM, first compound 3.16 µM
[6] = second compound 0.0316 µM, first compound 10 µM
[7] = second compound 0.1 µM, first compound 0.0316 µM
[8] = second compound 0.1 µM, first compound 0.1 µM
[9] = second compound 0.1 µM, first compound 0.316 µM
[10] = second compound 0.1 µM, first compound 1 µM
[11] = second compound 0.1 µM, first compound 3.16 µM
[12] = second compound 0.1 µM, first compound 10 µM
[13] = second compound 0.316 µM, first compound 0.0316 µM
[14] = second compound 0.316 µM, first compound 0.1 µM
[15] = second compound 0.316 µM, first compound 0.316 µM
[16] = second compound 0.316 µM, first compound 1 µM
[17] = second compound 0.316 µM, first compound 3.16 µM
[18] = second compound 0.316 µM, first compound 10 µM
[19] = second compound 1 µM, first compound 0.0316 µM
[20] = second compound 1 µM, first compound 0.1 µM
[21] = second compound 1 µM, first compound 0.316 µM
[22] = second compound 1 µM, first compound 1 µM
[23] = second compound 1 µM, first compound 3.16 µM
[24] = second compound 1 µM, first compound 10 µM
[25] = second compound 3.16 µM, first compound 0.0316 µM
[26] = second compound 3.16 µM, first compound 0.1 µM
[27] = second compound 3.16 µM, first compound 0.316 µM
[28] = second compound 3.16 µM, first compound 1 µM
[29] = second compound 3.16 µM, first compound 3.16 µM
[30] = second compound 3.16 µM, first compound 10 µM
[31] = second compound 10 µM, first compound 0.0316 µM
[32] = second compound 10 µM, first compound 0.1 µM
[33] = second compound 10 µM, first compound 0.316 µM
[34] = second compound 10 µM, first compound 1 µM
[35] = second compound 10 µM, first compound 3.16 µM
[36] = second compound 10 µM, first compound 10 µM
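Note: spheroids exposed to compounds for seven days before readout.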
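Throughout, for viability, T/C: 100% = DMSO vehicle control wells.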

## CC(=O)O[C@H]1C(=O)[C@@]2(C)[C@H]([C@H](OC(=O)c3ccccc3)[C@]3(O)C[C@H](OC(=O)[C@H](O)[C@@H](NC(=O)c4ccccc4)c4ccccc4)C(C)=C1C3(C)C)[C@]1(OC(C)=O)CO[C@@H]1C[C@@H]2O + CN1CCN(c2cc(C(=O)Nc3cc4cc(-c5cnn(C)c5)ccc4cn3)ccn2)CC1
Second compound 0.0316 µM
  IC50: < 31.6 nM
Second compound 0.1 µM
  IC50: > 10000 nM
Second compound 0.316 µM
  IC50: < 31.6 nM
Second compound 1 µM
  IC50: < 31.6 nM
Second compound 3.16 µM
  IC50: < 31.6 nM
Second compound 10 µM
  IC50: < 31.6 nM
[1]
  viability, T/C: 40.8%
[2]
  viability, T/C: 44.8%
[3]
  viability, T/C: 32.3%
[4]
  viability, T/C: 34.3%
[5]
  viability, T/C: 33.1%
[6]
  viability, T/C: 37.7%
[7]
  viability, T/C: 72.7%
[8]
  viability, T/C: 61.2%
[9]
  viability, T/C: 58.8%
[10]
  viability, T/C: 64.5%
[11]
  viability, T/C: 51.6%
[12]
  viability, T/C: 51.1%
[13]
  viability, T/C: 19%
[14]
  viability, T/C: 15.1%
[15]
  viability, T/C: 20.1%
[16]
  viability, T/C: 14.2%
[17]
  viability, T/C: 18%
[18]
  viability, T/C: 18.5%
[19]
  viability, T/C: 1.6%
[20]
  viability, T/C: 1.9%
[21]
  viability, T/C: 4.17%
[22]
  viability, T/C: 1.92%
[23]
  viability, T/C: 2.39%
[24]
  viability, T/C: 1.8%
[25]
  viability, T/C: 1.6%
[26]
  viability, T/C: 3.09%
[27]
  viability, T/C: 2.8%
[28]
  viability, T/C: 1.31%
[29]
  viability, T/C: 1.95%
[30]
  viability, T/C: 2.83%
[31]
  viability, T/C: 2.83%
[32]
  viability, T/C: 0.86%
[33]
  viability, T/C: 2.92%
[34]
  viability, T/C: 1.09%
[35]
  viability, T/C: 2.45%
[36]
  viability, T/C: 2.11%

## CCc1c2c(nc3ccc(O)cc13)-c1cc3c(c(=O)n1C2)COC(=O)[C@]3(O)CC + CN1CCN(c2cc(C(=O)Nc3cc4cc(-c5cnn(C)c5)ccc4cn3)ccn2)CC1
Second compound 0.0316 µM
  IC50: 68.3 nM
Second compound 0.1 µM
  IC50: 96 nM
Second compound 0.316 µM
  IC50: < 3.16 nM
Second compound 1 µM
  IC50: < 3.16 nM
Second compound 3.16 µM
  IC50: < 3.16 nM
Second compound 10 µM
  IC50: < 3.16 nM
Second compound 0.0316 µM, first compound 0.00316 µM
  viability, T/C: 104%
Second compound 0.0316 µM, first compound 0.01 µM
  viability, T/C: 91.3%
[1]
  viability, T/C: 73.8%
[2]
  viability, T/C: 39.2%
[3]
  viability, T/C: 16.6%
[4]
  viability, T/C: 13.1%
Second compound 0.1 µM, first compound 0.00316 µM
  viability, T/C: 152%
Second compound 0.1 µM, first compound 0.01 µM
  viability, T/C: 121%
[7]
  viability, T/C: 84%
[8]
  viability, T/C: 47.4%
[9]
  viability, T/C: 23.3%
[10]
  viability, T/C: 9.49%
Second compound 0.316 µM, first compound 0.00316 µM
  viability, T/C: 17.4%
Second compound 0.316 µM, first compound 0.01 µM
  viability, T/C: 17.4%
[13]
  viability, T/C: 18.3%
[14]
  viability, T/C: 13.1%
[15]
  viability, T/C: 5.94%
[16]
  viability, T/C: 5.35%
Second compound 1 µM, first compound 0.00316 µM
  viability, T/C: 1.34%
Second compound 1 µM, first compound 0.01 µM
  viability, T/C: 0.98%
[19]
  viability, T/C: 2.66%
[20]
  viability, T/C: 0.5%
[21]
  viability, T/C: 2.92%
[22]
  viability, T/C: 4.75%
Second compound 3.16 µM, first compound 0.00316 µM
  viability, T/C: 1.44%
Second compound 3.16 µM, first compound 0.01 µM
  viability, T/C: 1.88%
[25]
  viability, T/C: 0.95%
[26]
  viability, T/C: 1.2%
[27]
  viability, T/C: 2.83%
[28]
  viability, T/C: 4.75%
Second compound 10 µM, first compound 0.00316 µM
  viability, T/C: 0.83%
Second compound 10 µM, first compound 0.01 µM
  viability, T/C: 0.62%
[31]
  viability, T/C: 2.12%
[32]
  viability, T/C: 0.62%
[33]
  viability, T/C: 6.02%
[34]
  viability, T/C: 4.41%

## COc1ccc([C@@H](O)c2cc(-c3ncnc4cc(N5CCOCC5)ccc34)c(F)cc2Cl)nn1 + CN1CCN(c2cc(C(=O)Nc3cc4cc(-c5cnn(C)c5)ccc4cn3)ccn2)CC1
Second compound 0.0316 µM
  IC50: 8400 nM
Second compound 0.1 µM
  IC50: 5360 nM
Second compound 0.316 µM
  IC50: < 31.6 nM
Second compound 1 µM
  IC50: < 31.6 nM
Second compound 3.16 µM
  IC50: < 31.6 nM
Second compound 10 µM
  IC50: < 31.6 nM
[1]
  viability, T/C: 122%
[2]
  viability, T/C: 123%
[3]
  viability, T/C: 105%
[4]
  viability, T/C: 92.7%
[5]
  viability, T/C: 65.3%
[6]
  viability, T/C: 47.4%
[7]
  viability, T/C: 123%
[8]
  viability, T/C: 123%
[9]
  viability, T/C: 89%
[10]
  viability, T/C: 88.8%
[11]
  viability, T/C: 59.5%
[12]
  viability, T/C: 36.8%
[13]
  viability, T/C: 15.2%
[14]
  viability, T/C: 15.1%
[15]
  viability, T/C: 15.9%
[16]
  viability, T/C: 9.86%
[17]
  viability, T/C: 7.76%
[18]
  viability, T/C: 5.23%
[19]
  viability, T/C: 1.49%
[20]
  viability, T/C: 1.33%
[21]
  viability, T/C: 1.57%
[22]
  viability, T/C: 1.3%
[23]
  viability, T/C: 1.12%
[24]
  viability, T/C: 3.63%
[25]
  viability, T/C: 1.56%
[26]
  viability, T/C: 2.15%
[27]
  viability, T/C: 1.78%
[28]
  viability, T/C: 2.12%
[29]
  viability, T/C: 1.65%
[30]
  viability, T/C: 2.04%
[31]
  viability, T/C: 0.95%
[32]
  viability, T/C: 0.79%
[33]
  viability, T/C: 4.21%
[34]
  viability, T/C: 1.31%
[35]
  viability, T/C: 3.59%
[36]
  viability, T/C: 3.19%

## COc1cccc2c1C(=O)c1c(O)c3c(c(O)c1C2=O)CC(O)(C(=O)CO)CC3OC1CC(N)C(O)C(C)O1 (stereo not given) + CN1CCN(c2cc(C(=O)Nc3cc4cc(-c5cnn(C)c5)ccc4cn3)ccn2)CC1
Second compound 0.0316 µM
  IC50: 263 nM
Second compound 0.1 µM
  IC50: 224 nM
Second compound 0.316 µM
  IC50: < 31.6 nM
Second compound 1 µM
  IC50: < 31.6 nM
Second compound 3.16 µM
  IC50: < 31.6 nM
Second compound 10 µM
  IC50: < 31.6 nM
[1]
  viability, T/C: 114%
[2]
  viability, T/C: 116%
[3]
  viability, T/C: 37.5%
[4]
  viability, T/C: 7.36%
[5]
  viability, T/C: 0.34%
[6]
  viability, T/C: 0.49%
[7]
  viability, T/C: 150%
[8]
  viability, T/C: 109%
[9]
  viability, T/C: 24.6%
[10]
  viability, T/C: 3.45%
[11]
  viability, T/C: 0.34%
[12]
  viability, T/C: 1.62%
[13]
  viability, T/C: 14.6%
[14]
  viability, T/C: 14.6%
[15]
  viability, T/C: 3.54%
[16]
  viability, T/C: 0.66%
[17]
  viability, T/C: 0.34%
[18]
  viability, T/C: 2.75%
[19]
  viability, T/C: 1.14%
[20]
  viability, T/C: 0.59%
[21]
  viability, T/C: 1%
[22]
  viability, T/C: 0.68%
[23]
  viability, T/C: 0.96%
[24]
  viability, T/C: 2.88%
[25]
  viability, T/C: 1.47%
[26]
  viability, T/C: 3.06%
[27]
  viability, T/C: 0.97%
[28]
  viability, T/C: 0.79%
[29]
  viability, T/C: 1.31%
[30]
  viability, T/C: 4.32%
[31]
  viability, T/C: 0.73%
[32]
  viability, T/C: 0.59%
[33]
  viability, T/C: 3.86%
[34]
  viability, T/C: 0.35%
[35]
  viability, T/C: 0.23%
[36]
  viability, T/C: 3.87%

## O=c1[nH]cc(F)c(=O)[nH]1 + CN1CCN(c2cc(C(=O)Nc3cc4cc(-c5cnn(C)c5)ccc4cn3)ccn2)CC1
Second compound 0.0316 µM
  IC50: > 10000 nM
Second compound 0.1 µM
  IC50: > 10000 nM
Second compound 0.316 µM
  IC50: < 31.6 nM
Second compound 1 µM
  IC50: < 31.6 nM
Second compound 3.16 µM
  IC50: < 31.6 nM
Second compound 10 µM
  IC50: < 31.6 nM
[1]
  viability, T/C: 128%
[2]
  viability, T/C: 120%
[3]
  viability, T/C: 132%
[4]
  viability, T/C: 125%
[5]
  viability, T/C: 125%
[6]
  viability, T/C: 96.5%
[7]
  viability, T/C: 149%
[8]
  viability, T/C: 119%
[9]
  viability, T/C: 123%
[10]
  viability, T/C: 139%
[11]
  viability, T/C: 113%
[12]
  viability, T/C: 96%
[13]
  viability, T/C: 20.4%
[14]
  viability, T/C: 25%
[15]
  viability, T/C: 18.3%
[16]
  viability, T/C: 18%
[17]
  viability, T/C: 18.1%
[18]
  viability, T/C: 21.4%
[19]
  viability, T/C: 1.7%
[20]
  viability, T/C: 1.4%
[21]
  viability, T/C: 1.3%
[22]
  viability, T/C: 1.91%
[23]
  viability, T/C: 4.01%
[24]
  viability, T/C: 5.93%
[25]
  viability, T/C: 1.76%
[26]
  viability, T/C: 3.81%
[27]
  viability, T/C: 1.88%
[28]
  viability, T/C: 2.14%
[29]
  viability, T/C: 1.46%
[30]
  viability, T/C: 5.59%
[31]
  viability, T/C: 0.99%
[32]
  viability, T/C: 0.93%
[33]
  viability, T/C: 0.6%
[34]
  viability, T/C: 1.01%
[35]
  viability, T/C: 5.93%
[36]
  viability, T/C: 4.87%
